The kinase profiling compilation of Christmann-Franck et al. (2016)

How the values were obtained:
Test in all cases: KINOMEscan competition binding
Settings in all cases: compound 10.0 µM
AAK1 (human) = AAK1 (human) (UniProt Q2M2I8)
CAMK1D (human) = CAMK1D (human) (UniProt Q8IU85)
CAMK2D (human) = CAMK2D (human) (UniProt Q13557)
CDK2 (human) = CDK2 (human) (UniProt P24941)
CDK9 (human) = CDK9 (human) (UniProt P50750)
CDKL5 (human) = CDKL5 (human) (UniProt O76039)
CHUK (human) = CHUK (human) (UniProt O15111)
Chain of CHUK (human) (O15111 whole entry, looked up): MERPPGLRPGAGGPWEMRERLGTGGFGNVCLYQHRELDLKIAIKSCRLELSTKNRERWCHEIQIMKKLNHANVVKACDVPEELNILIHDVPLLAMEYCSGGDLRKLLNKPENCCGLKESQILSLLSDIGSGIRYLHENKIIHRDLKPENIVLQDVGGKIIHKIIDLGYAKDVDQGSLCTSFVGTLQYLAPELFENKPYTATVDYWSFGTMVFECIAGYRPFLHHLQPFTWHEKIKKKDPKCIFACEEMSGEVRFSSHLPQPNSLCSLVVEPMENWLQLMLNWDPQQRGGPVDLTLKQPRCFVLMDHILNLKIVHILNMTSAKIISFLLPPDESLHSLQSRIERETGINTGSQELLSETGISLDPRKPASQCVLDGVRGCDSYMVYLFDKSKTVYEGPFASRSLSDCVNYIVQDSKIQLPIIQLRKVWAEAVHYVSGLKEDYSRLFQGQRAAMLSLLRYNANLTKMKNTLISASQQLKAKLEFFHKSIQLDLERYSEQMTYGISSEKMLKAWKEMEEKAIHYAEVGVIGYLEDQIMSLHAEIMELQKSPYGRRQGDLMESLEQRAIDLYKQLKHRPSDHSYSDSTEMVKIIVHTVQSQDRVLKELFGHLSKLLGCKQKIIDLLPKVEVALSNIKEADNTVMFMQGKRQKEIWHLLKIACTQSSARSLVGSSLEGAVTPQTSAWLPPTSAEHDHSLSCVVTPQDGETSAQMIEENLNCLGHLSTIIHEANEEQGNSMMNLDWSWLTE

CLK4 (human) = CLK4 (human) (UniProt Q9HAZ1)
CSNK1D (human) = CSNK1D (human) (UniProt P48730)
DAPK3 (human) = DAPK3 (human) (UniProt O43293)
EPHA6 (human) = EPHA6 (human) (UniProt Q9UF33)
FGR (human) = FGR (human) (UniProt P09769)
Chain of FGR (human) (P09769 whole entry, looked up): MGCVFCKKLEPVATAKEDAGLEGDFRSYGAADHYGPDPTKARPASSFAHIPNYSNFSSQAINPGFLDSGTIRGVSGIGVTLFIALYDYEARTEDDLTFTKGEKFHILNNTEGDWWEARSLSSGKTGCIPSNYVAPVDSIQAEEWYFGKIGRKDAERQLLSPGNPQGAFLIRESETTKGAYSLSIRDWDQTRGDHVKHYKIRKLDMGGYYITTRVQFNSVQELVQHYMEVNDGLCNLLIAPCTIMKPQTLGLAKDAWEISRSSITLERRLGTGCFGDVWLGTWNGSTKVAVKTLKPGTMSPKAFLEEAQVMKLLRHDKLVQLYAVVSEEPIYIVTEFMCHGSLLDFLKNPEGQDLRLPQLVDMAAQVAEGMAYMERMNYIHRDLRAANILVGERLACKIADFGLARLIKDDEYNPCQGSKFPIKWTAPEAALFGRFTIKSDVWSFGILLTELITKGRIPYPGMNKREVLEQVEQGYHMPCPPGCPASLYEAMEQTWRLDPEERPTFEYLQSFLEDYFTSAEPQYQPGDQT

FYN (human) = FYN (human) (UniProt P06241)
GRK1 (human) = GRK1 (human) (UniProt Q15835)
GSK3A (human) = GSK3A (human) (UniProt P49840)
ICK (human) = ICK (human) (UniProt Q9UPZ9)
[1] = molecular target: JAK1 JH2 pseudokinase (human) (UniProt P23458)
[2] = molecular target: JAK3 JH1 catalytic (human) (UniProt P52333)
Chain of JAK3 JH1 catalytic (human) (P52333 whole entry, looked up): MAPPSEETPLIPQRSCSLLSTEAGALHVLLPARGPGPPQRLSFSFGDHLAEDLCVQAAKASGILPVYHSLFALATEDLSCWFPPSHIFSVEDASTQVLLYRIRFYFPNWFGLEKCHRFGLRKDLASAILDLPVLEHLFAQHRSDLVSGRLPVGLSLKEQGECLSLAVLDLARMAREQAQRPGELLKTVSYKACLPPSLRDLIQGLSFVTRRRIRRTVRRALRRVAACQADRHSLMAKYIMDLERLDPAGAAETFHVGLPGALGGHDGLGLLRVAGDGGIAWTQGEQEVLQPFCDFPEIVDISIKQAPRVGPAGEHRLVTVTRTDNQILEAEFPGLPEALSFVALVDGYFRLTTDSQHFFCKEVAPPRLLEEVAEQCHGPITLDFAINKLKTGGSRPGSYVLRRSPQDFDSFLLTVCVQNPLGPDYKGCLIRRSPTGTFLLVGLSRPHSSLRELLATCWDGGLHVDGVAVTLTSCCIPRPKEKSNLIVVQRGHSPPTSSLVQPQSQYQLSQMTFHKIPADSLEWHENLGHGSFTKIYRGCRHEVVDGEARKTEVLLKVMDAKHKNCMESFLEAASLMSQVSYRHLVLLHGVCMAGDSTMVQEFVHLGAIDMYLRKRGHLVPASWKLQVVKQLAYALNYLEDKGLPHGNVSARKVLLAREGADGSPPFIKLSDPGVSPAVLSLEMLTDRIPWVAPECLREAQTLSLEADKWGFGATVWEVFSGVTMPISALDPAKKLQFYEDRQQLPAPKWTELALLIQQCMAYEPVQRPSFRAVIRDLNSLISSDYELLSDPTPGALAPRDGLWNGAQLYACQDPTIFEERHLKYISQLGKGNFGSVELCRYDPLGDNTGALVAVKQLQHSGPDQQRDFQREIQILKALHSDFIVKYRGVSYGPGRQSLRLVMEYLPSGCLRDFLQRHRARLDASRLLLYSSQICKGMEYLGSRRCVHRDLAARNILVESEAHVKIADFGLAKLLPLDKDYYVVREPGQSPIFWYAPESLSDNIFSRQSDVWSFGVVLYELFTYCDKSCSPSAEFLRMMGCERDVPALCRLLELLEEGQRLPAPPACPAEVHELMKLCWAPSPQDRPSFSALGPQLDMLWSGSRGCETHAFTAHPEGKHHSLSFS

[3] = test system: KIT (human), P10721 [L576P]
LIMK1 (human) = LIMK1 (human) (UniProt P53667)
MAP3K15 (human) = MAP3K15 (human) (UniProt Q6ZN16)
MAP3K2 (human) = MAP3K2 (human) (UniProt Q9Y2U5)
MAPK14 (human) = MAPK14 (human) (UniProt Q16539)
Chain of MAPK14 (human) (Q16539 whole entry, looked up): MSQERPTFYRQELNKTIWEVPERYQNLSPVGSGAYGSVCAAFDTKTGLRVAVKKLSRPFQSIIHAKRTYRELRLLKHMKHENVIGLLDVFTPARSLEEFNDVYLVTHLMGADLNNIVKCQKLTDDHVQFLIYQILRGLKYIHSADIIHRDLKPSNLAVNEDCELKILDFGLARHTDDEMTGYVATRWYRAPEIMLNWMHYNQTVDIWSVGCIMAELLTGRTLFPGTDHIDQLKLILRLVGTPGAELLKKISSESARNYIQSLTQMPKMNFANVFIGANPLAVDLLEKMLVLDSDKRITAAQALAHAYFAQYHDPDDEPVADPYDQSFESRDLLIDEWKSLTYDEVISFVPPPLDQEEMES

MARK4 (human) = MARK4 (human) (UniProt Q96L34)
MERTK (human) = MERTK (human) (UniProt Q12866)
Chain of MERTK (human) (Q12866 whole entry, looked up): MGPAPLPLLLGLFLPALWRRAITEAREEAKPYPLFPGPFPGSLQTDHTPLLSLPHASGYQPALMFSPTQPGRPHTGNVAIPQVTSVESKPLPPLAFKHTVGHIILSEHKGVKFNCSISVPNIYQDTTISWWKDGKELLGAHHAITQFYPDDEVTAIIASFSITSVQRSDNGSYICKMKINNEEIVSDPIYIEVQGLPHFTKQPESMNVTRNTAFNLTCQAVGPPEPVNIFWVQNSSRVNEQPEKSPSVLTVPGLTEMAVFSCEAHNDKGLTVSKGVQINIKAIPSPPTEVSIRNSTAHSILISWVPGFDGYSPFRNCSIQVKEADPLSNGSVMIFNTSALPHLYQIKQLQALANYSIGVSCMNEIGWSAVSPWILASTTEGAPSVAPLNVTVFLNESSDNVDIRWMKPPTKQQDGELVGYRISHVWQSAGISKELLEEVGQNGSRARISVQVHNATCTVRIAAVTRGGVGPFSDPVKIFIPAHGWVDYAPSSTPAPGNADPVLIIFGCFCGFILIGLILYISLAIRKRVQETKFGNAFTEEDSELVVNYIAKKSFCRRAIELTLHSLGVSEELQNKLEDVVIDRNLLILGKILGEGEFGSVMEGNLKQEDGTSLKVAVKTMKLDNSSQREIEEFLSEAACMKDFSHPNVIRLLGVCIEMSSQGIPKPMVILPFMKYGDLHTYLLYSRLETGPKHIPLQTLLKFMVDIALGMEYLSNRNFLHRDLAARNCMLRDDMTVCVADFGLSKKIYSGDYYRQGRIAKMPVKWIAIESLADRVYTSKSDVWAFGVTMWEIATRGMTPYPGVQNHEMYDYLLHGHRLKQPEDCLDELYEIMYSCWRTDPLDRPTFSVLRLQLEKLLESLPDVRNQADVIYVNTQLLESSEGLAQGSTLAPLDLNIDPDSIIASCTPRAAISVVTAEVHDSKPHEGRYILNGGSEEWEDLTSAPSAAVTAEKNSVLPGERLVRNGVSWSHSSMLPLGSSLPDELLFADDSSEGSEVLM

MLTK (human) = MLTK (human) (UniProt Q9NYL2)
MST1R (human) = MST1R (human) (UniProt Q04912)
PAK1 (human) = PAK1 (human) (UniProt Q13153)
PIP4K2C (human) = PIP4K2C (human) (UniProt Q8TBX8)
Chain of PIP4K2C (human) (Q8TBX8 whole entry, looked up): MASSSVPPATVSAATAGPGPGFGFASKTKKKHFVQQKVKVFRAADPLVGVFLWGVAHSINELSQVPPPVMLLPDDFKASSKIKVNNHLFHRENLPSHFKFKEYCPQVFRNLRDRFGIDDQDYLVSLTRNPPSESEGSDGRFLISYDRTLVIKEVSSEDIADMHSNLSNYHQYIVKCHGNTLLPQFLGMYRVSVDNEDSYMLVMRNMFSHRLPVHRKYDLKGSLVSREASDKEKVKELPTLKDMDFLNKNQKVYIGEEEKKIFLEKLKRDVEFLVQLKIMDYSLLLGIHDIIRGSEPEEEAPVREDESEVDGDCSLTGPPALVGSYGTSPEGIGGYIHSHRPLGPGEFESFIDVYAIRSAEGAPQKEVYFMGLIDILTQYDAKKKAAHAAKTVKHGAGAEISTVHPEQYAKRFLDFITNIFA

PIP5K1C (human) = PIP5K1C (human) (UniProt O60331)
PKN3 (M.tuberculosis) = PKN3 (M.tuberculosis) (UniProt Q6P5Z2)
PRKCD (human) = PRKCD (human) (UniProt Q05655)
Chain of PRKCD (human) (Q05655 whole entry, looked up): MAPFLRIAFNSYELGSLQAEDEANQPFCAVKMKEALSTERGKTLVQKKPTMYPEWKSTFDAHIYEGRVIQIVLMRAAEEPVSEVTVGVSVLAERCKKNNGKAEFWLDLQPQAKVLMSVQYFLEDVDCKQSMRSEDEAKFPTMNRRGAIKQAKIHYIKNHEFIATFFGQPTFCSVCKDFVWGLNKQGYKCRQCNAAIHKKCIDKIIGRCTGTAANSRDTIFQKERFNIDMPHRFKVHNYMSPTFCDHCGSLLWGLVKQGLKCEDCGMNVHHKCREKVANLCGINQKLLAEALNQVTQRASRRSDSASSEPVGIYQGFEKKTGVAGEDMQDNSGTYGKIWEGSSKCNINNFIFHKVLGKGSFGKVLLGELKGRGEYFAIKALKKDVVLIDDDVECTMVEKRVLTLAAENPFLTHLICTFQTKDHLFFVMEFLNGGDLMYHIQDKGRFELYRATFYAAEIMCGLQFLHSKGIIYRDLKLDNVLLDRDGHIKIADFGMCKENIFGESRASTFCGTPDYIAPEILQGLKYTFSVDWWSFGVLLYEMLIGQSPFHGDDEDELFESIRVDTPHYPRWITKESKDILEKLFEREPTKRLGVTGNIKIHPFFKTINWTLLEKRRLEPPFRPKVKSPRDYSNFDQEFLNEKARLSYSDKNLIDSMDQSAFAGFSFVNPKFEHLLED

PRKD2 (human) = PRKD2 (human) (UniProt Q9BZL6)
PTK2B (human) = PTK2B (human) (UniProt Q14289)
RIPK2 (human) = RIPK2 (human) (UniProt O43353)
RPS6KA2 KD2 (human) = RPS6KA2 KD2 (human) (UniProt Q15349)
RPS6KA5 KD2 (human) = RPS6KA5 KD2 (human) (UniProt O75582)
STK11 (human) = STK11 (human) (UniProt Q15831)
STK16 (human) = STK16 (human) (UniProt O75716)
TTK (human) = TTK (human) (UniProt P33981)

## COc1cc2ncnc(-n3nc(-c4ccccn4)nc3N)c2cc1OC
AAK1 (human)
  kinase still bound, per cent of control: 6.9%
CAMK1D (human)
  kinase still bound, per cent of control: 34%
CAMK2D (human)
  kinase still bound, per cent of control: 55%
CDK2 (human)
  kinase still bound, per cent of control: 50%
CDK9 (human)
  kinase still bound, per cent of control: 76%
CDKL5 (human)
  kinase still bound, per cent of control: 0.3%
CHUK (human)
  kinase still bound, per cent of control: 44%
CLK4 (human)
  kinase still bound, per cent of control: 2.2%
CSNK1D (human)
  kinase still bound, per cent of control: 2.8%
DAPK3 (human)
  kinase still bound, per cent of control: 4.6%
EPHA6 (human)
  kinase still bound, per cent of control: 23%
FGR (human)
  kinase still bound, per cent of control: 36%
FYN (human)
  kinase still bound, per cent of control: 25%
GRK1 (human)
  kinase still bound, per cent of control: 41%
GSK3A (human)
  kinase still bound, per cent of control: 73%
ICK (human)
  kinase still bound, per cent of control: 47%
[1]
  kinase still bound, per cent of control: 0.4%
[2]
  kinase still bound, per cent of control: 33%
[3]
  kinase still bound, per cent of control: 4.5%
LIMK1 (human)
  kinase still bound, per cent of control: 22%
MAP3K15 (human)
  kinase still bound, per cent of control: 54%
MAP3K2 (human)
  kinase still bound, per cent of control: 33%
MAPK14 (human)
  kinase still bound, per cent of control: 50%
MARK4 (human)
  kinase still bound, per cent of control: 75%
MERTK (human)
  kinase still bound, per cent of control: 29%
MLTK (human)
  kinase still bound, per cent of control: 4.5%
MST1R (human)
  kinase still bound, per cent of control: 100%
PAK1 (human)
  kinase still bound, per cent of control: 70%
PIP4K2C (human)
  kinase still bound, per cent of control: 1.1%
PIP5K1C (human)
  kinase still bound, per cent of control: 5%
PKN3 (M.tuberculosis)
  kinase still bound, per cent of control: 7.1%
PRKCD (human)
  kinase still bound, per cent of control: 76%
PRKD2 (human)
  kinase still bound, per cent of control: 65%
PTK2B (human)
  kinase still bound, per cent of control: 75%
RIPK2 (human)
  kinase still bound, per cent of control: 2.6%
RPS6KA2 KD2 (human)
  kinase still bound, per cent of control: 43%
RPS6KA5 KD2 (human)
  kinase still bound, per cent of control: 33%
STK11 (human)
  kinase still bound, per cent of control: 100%
STK16 (human)
  kinase still bound, per cent of control: 2.8%
TTK (human)
  kinase still bound, per cent of control: 20%
